The values below are quoted from earlier work in patent US20190359769A1, “PHARMACEUTICAL AGENT FOR IRON CHELATING” (Johannes Gutenberg-Universität Mainz, priority 2017, published 2019).

The conditions of data set [1]: one study.
The conditions of data set [2]: studies on rats and humans.
The conditions of data set [3]: Fe^3+ complex.
The conditions of data set [4]: in vivo.

For `Cc1c(O)c(=O)ccn1C` [DFP, Deferiprone], the “proportion of the DFP dose administered found in the urine in the form of inactive 3-O-glucoronide conjugates” value in data set [1] was 85%.

For the compound `O=C(O)c1ccc(-n2nc(-c3ccccc3O)nc2-c2ccccc2O)cc1` [DFX, Deferasirox], in data set [2], the physiological half-life is 8-16 h.

As for `CC(=O)N(O)CCCCCNC(=O)CCC(=O)N(O)CCCCCNC(=O)CCC(=O)N(O)CCCCCN` [DFO, Deferoxamine], the “logarithmic stability constant of iron complexes” value in data set [3] is 30. In data set [4], the plasma half-life entry was “about 5 minutes”.
